Experiment [1] deals with T1, USP7 (Homo sapiens, UniProt Q93009, C315A).
T1 construct: 0.25 nM His-His-USP7 (aa208-560, |C315A|) was incubated with compound; His-His (N)
As to the kind of experiment: Inhibition of USP7 by Fluorescence Intensity (FLINT) readings, Ubiquitin-Rhodamine-110 substrate. In kind it is biochemical. The settings on record: 0.25 nM His-His-USP7 (aa208-560), 60 minutes at 30° C. preincubation; Ki determined from IC50 according to Cer et al. The method in brief:
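His-tagged USP7 (aa208-560, C315A), 0.25 nM, preincubated with compound 60 min at 30 °C in 100 mM Bicine pH 8.0, 0.01% Triton X-100, 1 mM TCEP, 10% DMSO. Ubiquitin-Rhodamine-110 (50 nM or 4 μM) added; kinetic fluorescence (Ex 485/Em 535 nm) over 21 min; IC50 from 11-point curves, Ki derived from IC50.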

Experiment [2] has as its system Z138 mantle cell lymphoma tumour cell lines. As to the kind of experiment: In vitro cytotoxicity, MTT assay. In kind it is cell-based. The settings on record: Homo sapiens, Z-138; Z138 cells, exposed to the test compounds for 96 hours. Summed up: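 Z138 cells exposed to compounds for 96 hours, then MTT added for 4 hours. Formazan absorbance at 540 nm serves as the measure of viable cell number.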

T1 sequence (Q93009 208-560 C315A): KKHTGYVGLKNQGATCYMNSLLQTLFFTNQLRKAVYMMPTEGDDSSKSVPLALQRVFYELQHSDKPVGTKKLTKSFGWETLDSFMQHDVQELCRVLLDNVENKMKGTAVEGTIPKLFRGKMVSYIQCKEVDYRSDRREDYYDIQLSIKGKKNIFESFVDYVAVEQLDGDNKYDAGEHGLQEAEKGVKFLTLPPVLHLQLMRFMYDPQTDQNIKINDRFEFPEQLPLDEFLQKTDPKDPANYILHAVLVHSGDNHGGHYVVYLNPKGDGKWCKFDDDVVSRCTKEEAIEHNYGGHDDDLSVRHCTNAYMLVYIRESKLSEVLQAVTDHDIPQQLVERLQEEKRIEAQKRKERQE

In experiment [1], `Cc1ccc(-c2nccc(CN3CC[C@@H](C(=O)N4CC[C@](O)(Cn5cnc(Oc6ccc(F)cc6)c(N)c5=O)C(F)(F)C4)[C@H](c4ccccc4)C3)n2)cn1` [Example 176, 5-amino-3-[[(4S)-3,3-difluoro-4-hydroxy-1-((3R,4R)-1-{[2-(6-methyl-3-pyridyl)pyrimidin-4-yl]methyl]-3-phenyl-piperidine-4-carbonyl]-4-piperidyl]methyl]-6-(4-fluorophenoxy)pyrimidin-4-one] displayed a Ki of 3.2 nM. This molecule came in with an IC50 in experiment [2] of 1.52 nM.
`Nc1c(Oc2ccc(F)cc2)ncn(C[C@@]2(O)CCN(C(=O)[C@@H]3CCN(Cc4ccnc(-c5ccccc5)n4)C[C@H]3c3ccccc3)CC2(F)F)c1=O` [Example 177, 5-amino-3-[[(4S)-3,3-difluoro-4-hydroxy-1-[(3R,4R)-3-phenyl-1-[(2-phenylpyrimidin-4-yl)methyl]piperidine-4-carbonyl]-4-piperidyl]methyl]-6-(4-fluorophenoxy)pyrimidin-4-one] had a Ki in experiment [1] of 9.99 nM. In experiment [2], this molecule yielded an IC50 of 2.32 nM.
In experiment [1], `COc1cc(Cl)cc(Oc2ncn(C[C@@]3(O)CCN(C(=O)[C@@H]4CCN(Cc5cnc(C)cn5)C[C@H]4c4ccccc4)CC3(F)F)c(=O)c2N)c1` [Example 178] registered a Ki of 70.1 nM. This molecule also displayed an IC50 in experiment [2] of 31.8 nM.
In experiment [1], `COc1cc(Oc2ncn(C[C@@]3(O)CCN(C(=O)[C@@H]4CCN(C(=O)c5sc(-c6ccc(C)nc6)nc5C)C[C@H]4c4ccccc4)CC3(F)F)c(=O)c2N)ccc1F` [Example 179] came in with a Ki of 5.58 nM. Further, the IC50 in experiment [2] amounted to 1.34 nM.
On the same counts, the results for `COc1cc(Oc2ncn(C[C@@]3(O)CCN(C(=O)[C@@H]4CCN(Cc5ccnc(C)n5)C[C@H]4c4ccccc4)CC3(F)F)c(=O)c2N)ccc1Cl` [Example 182] are 40.4 nM and 9.95 nM.
On the same counts, the results for `COc1cc(Oc2ncn(C[C@@]3(O)CCN(C(=O)[C@@H]4CCN(Cc5cnc(C)cn5)C[C@H]4c4ccccc4)CC3(F)F)c(=O)c2N)ccc1Cl` [Example 183, 5-amino-6-(4-chloro-3-methoxy-phenoxy)-3-[[(4S)-3,3-difluoro-4-hydroxy-1-[(3R,4R)-1-[(5-methylpyrazin-2-yl)methyl]-3-phenyl-piperidine-4-carbonyl]-4-piperidyl]methyl]pyrimidin-4-one] are 37 nM and 9.5 nM.
In turn, `COc1cc(Oc2ncn(C[C@@]3(O)CCN(C(=O)[C@@H]4CCN(C(=O)c5sc(-c6ccc(C)nc6)nc5C)C[C@H]4c4ccccc4)CC3(F)F)c(=O)c2N)ccc1Cl` [Example 184, 5-amino-6-(4-chloro-3-methoxy-phenoxy)-3-[[(4S)-3,3-difluoro-4-hydroxy-1-[(3R,4R)-1-[4-methyl-2-(6-methyl-3-pyridyl)thiazole-5-carbonyl]-3-phenyl-piperidine-4-carbonyl]-4-piperidyl]methyl]pyrimidin-4-one] returned a Ki in experiment [1] of 7.28 nM. This molecule also came in with an IC50 in experiment [2] of 3.96 nM.
With `Cc1ncc(-c2nc(C)c(C(=O)N3CC[C@@H](C(=O)N4CC[C@](O)(Cn5cnc(Oc6ccc(F)cc6)c(N)c5=O)C(F)(F)C4)[C@H](c4ccccc4)C3)s2)cc1C(F)(F)F` [Example 185, 5-amino-3-[[(4S)-3,3-difluoro-4-hydroxy-1-[(3R,4R)-1-[4-methyl-2-[6-methyl-5-(trifluoromethyl)-3-pyridyl]thiazole-5-carbonyl]-3-phenyl-piperidine-4-carbonyl]-4-piperidyl]methyl]-6-(4-fluorophenoxy)pyrimidin-4-one], in experiment [1], the Ki worked out at 13 nM. Further, in experiment [2], the IC50 worked out at 7.65 nM.
`COc1cc(Oc2ncn(C[C@@]3(O)CCN(C(=O)[C@@H]4CCN(Cc5ccnc(C)n5)C[C@H]4c4ccccc4)CC3(F)F)c(=O)c2N)ccc1C1CC1` [Example 188, 5-amino-6-(4-cyclopropyl-3-methoxy-phenoxy)-3-[[(4S)-3,3-difluoro-4-hydroxy-1-[(3R,4R)-1-[(2-methylpyrimidin-4-yl)methyl]-3-phenyl-piperidine-4-carbonyl]-4-piperidyl]methyl]pyrimidin-4-one] returned a Ki in experiment [1] of 69.9 nM. In experiment [2], this molecule showed an IC50 of 69 nM.
Taken in the same sequence, the figures for `Cc1nc(C2CC(F)(F)C2)sc1C(=O)N1CC[C@@H](C(=O)N2CCC(O)(Cn3cnc(Oc4ccc(F)cc4)c(N)c3=O)CC2)[C@H](c2ccccc2)C1` [Example 189] were 11.1 nM and 6.34 nM.
Taken in the same sequence, the figures for `Cc1nc(C2CC(F)(F)C2)sc1C(=O)N1CC[C@@H](C(=O)N2CC[C@](O)(Cn3cnc(Oc4ccc(F)cc4)c(N)c3=O)C(F)(F)C2)[C@H](c2ccccc2)C1` [Example 190] were 12.4 nM and 6.82 nM.
On the same counts, the results for `Cc1nc(C2CCOCC2)sc1C(=O)N1CC[C@@H](C(=O)N2CCC(O)(Cn3cnc(Oc4ccc(F)cc4)c(N)c3=O)CC2)[C@H](c2ccccc2)C1` [Example 191, 5-amino-6-(4-fluorophenoxy)-3-[[4-hydroxy-1-[(3R,4R)-1-(4-methyl-2-tetrahydropyran-4-yl-thiazole-5-carbonyl)-3-phenyl-piperidine-4-carbonyl]-4-piperidyl]methyl]pyrimidin-4-one] are 17.7 nM and 20.1 nM.
Turning to `Cc1nc(C2CCOCC2)sc1C(=O)N1CC[C@@H](C(=O)N2CC[C@](O)(Cn3cnc(Oc4ccc(F)cc4)c(N)c3=O)C(F)(F)C2)[C@H](c2ccccc2)C1` [Example 192, 5-amino-3-[[(4S)-3,3-difluoro-4-hydroxy-1-[(3R,4R)-1-(4-methyl-2-tetrahydropyran-4-yl-thiazole-5-carbonyl)-3-phenyl-piperidine-4-carbonyl]-4-piperidyl]methyl]-6-(4-fluorophenoxy)pyrimidin-4-one], the Ki in experiment [1] was found to be 8.8 nM. In experiment [2], this molecule came in with a 50% inhibitory concentration (IC50) of 8.48 nM.
On the same counts, the results for `Cc1nc(C2CCCN(C)C2)sc1C(=O)N1CC[C@@H](C(=O)N2CCC(O)(Cn3cnc(Oc4ccc(F)cc4)c(N)c3=O)CC2)[C@H](c2ccccc2)C1` (stereo partly drawn) [Example 199, 5-amino-6-(4-fluorophenoxy)-3-[[4-hydroxy-1-[(3R,4R)-1-[4-methyl-2-(1-methyl-3-piperidyl)thiazole-5′-carbonyl]-3-phenyl-piperidine-4-carbonyl]-4-piperidyl]methyl]pyrimidin-4-one] are 9.23 nM and 34.1 nM.
In experiment [1], `Cc1nccc(CN2CC[C@@H](C(=O)N3CCC(O)(Cn4cnc(Oc5ccc(CO)cc5)c(N)c4=O)CC3)[C@H](c3ccccc3)C2)n1` [Example 200] had a Ki of 30 nM. Half-maximal inhibition in experiment [2] (IC50) required 106 nM.
On the same counts, the results for `Cc1cnc(CN2CC[C@@H](C(=O)N3CC[C@](O)(Cn4cnc(Oc5ccc(F)cc5)c(N)c4=O)C(F)(F)C3)[C@H](c3ccccc3)C2)cn1` [Example 201] are 23.9 nM and 7.5 nM.
On the same counts, the results for `Nc1c(Oc2ccc(F)cc2)ncn(C[C@@]2(O)CCN(C(=O)[C@@H]3CCN(Cc4cnccn4)C[C@H]3c3ccccc3)CC2(F)F)c1=O` [Example 202, 5-amino-3-[[(4S)-3,3-difluoro-4-hydroxy-1-[(3R,4R)-3-phenyl-1-(pyrazin-2-ylmethyl)piperidine-4-carbonyl]-4-piperidyl]methyl]-6-(4-fluorophenoxy)pyrimidin-4-one] are 21.8 nM and 11.7 nM.
Taken in the same sequence, the figures for `Nc1c(Oc2ccc(F)cc2)ncn(C[C@@]2(O)CCN(C(=O)[C@@H]3CCN(Cc4cccnn4)C[C@H]3c3ccccc3)CC2(F)F)c1=O` [Example 203] were 47.1 nM and 33 nM.
Molecule `Nc1c(Oc2ccc(F)cc2)ncn(C[C@@]2(O)CCN(C(=O)[C@@H]3CCN(Cc4ncccn4)C[C@H]3c3ccccc3)CC2(F)F)c1=O` [Example 204] had a Ki in experiment [1] of 36.5 nM. In addition, in experiment [2], the IC50 turned out to be 26.9 nM.
On the same counts, the results for `Cc1ccnc(CN2CC[C@@H](C(=O)N3CC[C@](O)(Cn4cnc(Oc5ccc(F)cc5)c(N)c4=O)C(F)(F)C3)[C@H](c3ccccc3)C2)n1` [Example 205] are 35.8 nM and 23.5 nM.
Taken in the same sequence, the figures for `Cc1cc(C)nc(CN2CC[C@@H](C(=O)N3CC[C@](O)(Cn4cnc(Oc5ccc(F)cc5)c(N)c4=O)C(F)(F)C3)[C@H](c3ccccc3)C2)n1` [Example 206, 5-amino-3-[[(4S)-1-[(3R,4R)-1-[(4,6-dimethylpyrimidin-2-yl)methyl]-3-phenyl-piperidine-4-carbonyl]-3,3-difluoro-4-hydroxy-4-piperidyl]methyl]-6(4-fluorophenoxy)pyrimidin-4-one] were 37.2 nM and 20.5 nM.
Taken in the same sequence, the figures for `Cc1cncc(CN2CC[C@@H](C(=O)N3CC[C@](O)(Cn4cnc(Oc5ccc(F)cc5)c(N)c4=O)C(F)(F)C3)[C@H](c3ccccc3)C2)n1` [Example 207, 5-amino-3-[[(4S)-3,3-difluoro-4-hydroxy-1-[(3R,4R)-1-[(6-methylpyrazin-2-yl)methyl]-3-phenyl-piperidine-4-carbonyl]-4-piperidyl]methyl]-6-(4-fluorophenoxy)pyrimidin-4-one] were 27.4 nM and 11.8 nM.
In experiment [1], `Cc1ccc(-c2nc(C)c(C(=O)N3CC[C@@H](C(=O)N4CC[C@](O)(Cn5cnc(Oc6ccc(CN)cc6)c(N)c5=O)C(F)(F)C4)[C@H](c4ccccc4)C3)s2)cn1` [Example 210] showed a Ki of 0.215 nM. Moreover, in experiment [2], half-maximal inhibition (IC50) required 1.85 nM.
On the same counts, the results for `Cc1nccnc1CN1CC[C@@H](C(=O)N2CC[C@](O)(Cn3cnc(Oc4ccc(F)cc4)c(N)c3=O)C(F)(F)C2)[C@H](c2ccccc2)C1` [Example 211, 5-amino-3-[[(4S)-3,3-difluoro-4-hydroxy-1-[(3R,4R)-1-[(3-methylpyrazin-2-yl)methyl]-3-phenyl-piperidine-4-carbonyl]-4-piperidyl]methyl]-4(4-fluorophenoxy)pyrimidin-4-one] are 27.7 nM and 24.9 nM.

(Values after US20210355106A1, “NEW AMINO-PYRIMIDONYL-PIPERIDINYL DERIVATIVES, A PROCESS FOR THEIR PREPARATION AND PHARMACEUTICAL COMPOSITIONS CONTAINING THEM” (LES LABORATOIRES SERVIER, priority 2018, published 2021).)
